In brackets after ≈: the same amount, converted by molar mass.
Key:
Assay type in all cases: physicochemical
[1] = Storage at RT, form checked by XRPD overlay; conditions: RT
Experimental: Form K was speculated as a methyl acetate solvate.
Thus, Form L was speculated as a metastable anhydrate/hydrate which could be de-solvated from the wet cake from the solvent system.
(peak) before decomposition (FIG. 16B). According to the integration of ^1H NMR result (FIG. 16C), the theoretical weight of chlorobenzene was calculated as 9.8%, which matched with the TGA weight loss. […] After heating the sample to 140° C., more diffraction peaks disappeared. Combined with the TGA, ^1H NMR data and heating experiment, Form P was speculated as a chlorobenzene solvate.

[2] = Physical stability: storage under humidity/temperature, form checked by XRPD
Experimental: To evaluate the physicochemical stability, store 1˜3 mg of Forms B, S, M, R, F, H and N samples were stored under 25° C./60% RH or 40° C./75% RH conditions for one week (unsealed) or 80° C. condition for 24 hrs (sealed).

[3] = Long term and accelerated physical and chemical stability test, impurities by HPLC
Experimental: Long term and accelerated stability studies were conducted in different physical forms of Compound 1, by storing the samples at 25±2° C./60±5% RH and 40±2° C./75±5% RH conditions for up to 6 months. And, the content of the total impurities of each sample was tested by HPLC.

[4] = DVS (Method B) water sorption / hygroscopicity; conditions: 25° C.; for water sorption: at 95% RH
Experimental: DVS of Form A and U was also measured via an SMS (Surface Measurement Systems) DVS Intrinsic (Method B). The relative humidity at 25° C. was calibrated against deliquescence point of LiCl, Mg(NO3)2, and KCL. Parameters for DVS test are listed as follows. [table]

[5] = Solid form solubility, concentration by HPLC at 24 hours; conditions: listed as Compound 1 Form A
Experimental: The solubility of Compound 1 in different physical forms was tested in water, 0.1 N HCl, pH 4.5 acetate buffer and pH 6.8 phosphate buffer. At 24 hours of time point, the concentration of Compound 1 was detected by HPLC.

[6] = 25° C./60% RH, one week, unsealed
[7] = 40° C./75% RH, one week, unsealed
[8] = 25±2° C./60±5% RH and 40±2° C./75±5% RH, up to 6 months

CC(C)c1ccccc1[C@@H]1CCCN1C1CC2(CCN(c3ccc(C(=O)NS(=O)(=O)c4ccc(NCC5CCC(C)(O)CC5)c([N+](=O)[O-])c4)c(Oc4cnc5[nH]ccc5c4)c3)CC2)C1 (stereo partly drawn) [Form P, 2-((1H-pyrrolo[2,3-b]pyridin-5-yl)oxy)-N-((4-((((1r,4r)-4-hydroxy-4-methylcyclohexyl)methyl)amino)-3-nitrophenyl)sulfonyl)-4-(2-((S)-2-(2-isopropylphenyl)pyrrolidin-1-yl)-7-azaspiro[3.5]nonan-7-yl)benzamide]
form change on storage (XRPD comparison) ([1]; ~4 weeks): some of the diffraction peaks disappeared

CC(C)c1ccccc1[C@@H]1CCCN1C1CC2(CCN(c3ccc(C(=O)NS(=O)(=O)c4ccc(NCC5CCC(C)(O)CC5)c([N+](=O)[O-])c4)c(Oc4cnc5[nH]ccc5c4)c3)CC2)C1 (stereo partly drawn) [Form N, 2-((1H-pyrrolo[2,3-b]pyridin-5-yl)oxy)-N-((4-((((1r,4r)-4-hydroxy-4-methylcyclohexyl)methyl)amino)-3-nitrophenyl)sulfonyl)-4-(2-((S)-2-(2-isopropylphenyl)pyrrolidin-1-yl)-7-azaspiro[3.5]nonan-7-yl)benzamide]
form change (XRPD overlay) [2, 6]: converted to Form T | form change (XRPD overlay) [2, 7]: converted to Form T | form change (XRPD overlay) ([2]; 80° C., sealed, 24 hrs): converted to Form T

CC(C)c1ccccc1[C@@H]1CCCN1C1CC2(CCN(c3ccc(C(=O)NS(=O)(=O)c4ccc(NCC5CCC(C)(O)CC5)c([N+](=O)[O-])c4)c(Oc4cnc5[nH]ccc5c4)c3)CC2)C1 (stereo partly drawn) [Form T, 2-((1H-pyrrolo[2,3-b]pyridin-5-yl)oxy)-N-((4-((((1r,4r)-4-hydroxy-4-methylcyclohexyl)methyl)amino)-3-nitrophenyl)sulfonyl)-4-(2-((S)-2-(2-isopropylphenyl)pyrrolidin-1-yl)-7-azaspiro[3.5]nonan-7-yl)benzamide]
form change on storage ([1]; ~3 days): convert back to Form N

CC(C)c1ccccc1[C@@H]1CCCN1C1CC2(CCN(c3ccc(C(=O)NS(=O)(=O)c4ccc(NCC5CCC(C)(O)CC5)c([N+](=O)[O-])c4)c(Oc4cnc5[nH]ccc5c4)c3)CC2)C1 (stereo partly drawn) [Form S, 2-((1H-pyrrolo[2,3-b]pyridin-5-yl)oxy)-N-((4-((((1r,4r)-4-hydroxy-4-methylcyclohexyl)methyl)amino)-3-nitrophenyl)sulfonyl)-4-(2-((S)-2-(2-isopropylphenyl)pyrrolidin-1-yl)-7-azaspiro[3.5]nonan-7-yl)benzamide]
form change (XRPD overlay) [2, 6]: no form change | form change (XRPD overlay) [2, 7]: no form change | form change (XRPD overlay) ([2]; 80° C., sealed, 24 hrs): no form change

CC(C)c1ccccc1[C@@H]1CCCN1C1CC2(CCN(c3ccc(C(=O)NS(=O)(=O)c4ccc(NCC5CCC(C)(O)CC5)c([N+](=O)[O-])c4)c(Oc4cnc5[nH]ccc5c4)c3)CC2)C1 (stereo partly drawn) [Form H, 2-((1H-pyrrolo[2,3-b]pyridin-5-yl)oxy)-N-((4-((((1r,4r)-4-hydroxy-4-methylcyclohexyl)methyl)amino)-3-nitrophenyl)sulfonyl)-4-(2-((S)-2-(2-isopropylphenyl)pyrrolidin-1-yl)-7-azaspiro[3.5]nonan-7-yl)benzamide]
form change (XRPD overlay) [2, 6]: no form change | form change (XRPD overlay) [2, 7]: no form change | form change (XRPD overlay) ([2]; 80° C., sealed, 24 hrs): an obvious decrease of crystallinity was observed

CC(C)c1ccccc1[C@@H]1CCCN1C1CC2(CCN(c3ccc(C(=O)NS(=O)(=O)c4ccc(NCC5CCC(C)(O)CC5)c([N+](=O)[O-])c4)c(Oc4cnc5[nH]ccc5c4)c3)CC2)C1 (stereo partly drawn) [Form U, 2-((1H-pyrrolo[2,3-b]pyridin-5-yl)oxy)-N-((4-((((1r,4r)-4-hydroxy-4-methylcyclohexyl)methyl)amino)-3-nitrophenyl)sulfonyl)-4-(2-((S)-2-(2-isopropylphenyl)pyrrolidin-1-yl)-7-azaspiro[3.5]nonan-7-yl)benzamide]
change of chemical purity ([3]; 25±2° C./60±5% RH and 40±2° C./75±5% RH, up to 6 months, listed as Compound 1 Form U): no significant change | total content of impurities ([3]; after 6 months at 40±2° C./75±5% RH, listed as Compound 1 Form U): 0.72% | total content of impurities ([3]; before storage (initial), listed as Compound 1 Form U): 0.40% | water sorption ([4]; listed as Compound 1 Form U): 1.4% | hygroscopicity ([4]; listed as Compound 1 Form U): slightly hygroscopicity

CC(C)c1ccccc1[C@@H]1CCCN1C1CC2(CCN(c3ccc(C(=O)NS(=O)(=O)c4ccc(NCC5CCC(C)(O)CC5)c([N+](=O)[O-])c4)c(Oc4cnc5[nH]ccc5c4)c3)CC2)C1 (stereo partly drawn) [Form A, 2-((1H-pyrrolo[2,3-b]pyridin-5-yl)oxy)-N-((4-((((1r,4r)-4-hydroxy-4-methylcyclohexyl)methyl)amino)-3-nitrophenyl)sulfonyl)-4-(2-((S)-2-(2-isopropylphenyl)pyrrolidin-1-yl)-7-azaspiro[3.5]nonan-7-yl)benzamide]
crystal form change [3, 8]: no crystal form and optical purity changes | optical purity change [3, 8]: no crystal form and optical purity changes | change of chemical purity ([3]; 25±2° C./60±5% RH and 40±2° C./75±5% RH, up to 6 months, listed as Compound 1 Form A): no significant change | total content of impurities ([3]; after 6 months at 40±2° C./75±5% RH, listed as Compound 1 Form A): 0.52% | content of solvent EA ([3]; after storage in the stability study): ~8.8 ×10^4 ppm | content of solvent EA ([3]; before storage (initial)): about 9.5 ×10^4 ppm | total content of impurities ([3]; before storage (initial), listed as Compound 1 Form A): 0.40% | water sorption ([4]; listed as Compound 1 form A): 0.4% | hygroscopicity ([4]; listed as Compound 1 form A): slightly hygroscopic | solubility ([5]; 0.1 N HCl): 29.36 µg/mL (≈ 33 µM) | solubility ([5]; pH 4.5 acetate buffer): 0.76 µg/mL (≈ 0.854 µM) | solubility ([5]; pH 6.8 phosphate buffer): 0.43 µg/mL (≈ 0.483 µM) | solubility ([5]; water): 0.37 µg/mL (≈ 0.416 µM)

CC(C)c1ccccc1[C@@H]1CCCN1C1CC2(CCN(c3ccc(C(=O)NS(=O)(=O)c4ccc(NCC5CCC(C)(O)CC5)c([N+](=O)[O-])c4)c(Oc4cnc5[nH]ccc5c4)c3)CC2)C1 (stereo partly drawn) [Form K, 2-((1H-pyrrolo[2,3-b]pyridin-5-yl)oxy)-N-((4-((((1r,4r)-4-hydroxy-4-methylcyclohexyl)methyl)amino)-3-nitrophenyl)sulfonyl)-4-(2-((S)-2-(2-isopropylphenyl)pyrrolidin-1-yl)-7-azaspiro[3.5]nonan-7-yl)benzamide]
form change on storage (XRPD overlay) ([1]; closed HPLC vial, ~5 weeks): converted to Form B of low crystallinity

CC(C)c1ccccc1[C@@H]1CCCN1C1CC2(CCN(c3ccc(C(=O)NS(=O)(=O)c4ccc(NCC5CCC(C)(O)CC5)c([N+](=O)[O-])c4)c(Oc4cnc5[nH]ccc5c4)c3)CC2)C1 (stereo partly drawn) [Form F, 2-((1H-pyrrolo[2,3-b]pyridin-5-yl)oxy)-N-((4-((((1r,4r)-4-hydroxy-4-methylcyclohexyl)methyl)amino)-3-nitrophenyl)sulfonyl)-4-(2-((S)-2-(2-isopropylphenyl)pyrrolidin-1-yl)-7-azaspiro[3.5]nonan-7-yl)benzamide]
form change (XRPD overlay) [2, 6]: a mixture of Forms F and B was observed | form change (XRPD overlay) [2, 7]: a mixture of Forms F and B was observed | form change (XRPD overlay) ([2]; 80° C., sealed, 24 hrs): a mixture of Forms F and B was observed

CC(C)c1ccccc1[C@@H]1CCCN1C1CC2(CCN(c3ccc(C(=O)NS(=O)(=O)c4ccc(NCC5CCC(C)(O)CC5)c([N+](=O)[O-])c4)c(Oc4cnc5[nH]ccc5c4)c3)CC2)C1 (stereo partly drawn) [Form M, 2-((1H-pyrrolo[2,3-b]pyridin-5-yl)oxy)-N-((4-((((1r,4r)-4-hydroxy-4-methylcyclohexyl)methyl)amino)-3-nitrophenyl)sulfonyl)-4-(2-((S)-2-(2-isopropylphenyl)pyrrolidin-1-yl)-7-azaspiro[3.5]nonan-7-yl)benzamide]
form change (XRPD overlay) [2, 6]: no form change | form change (XRPD overlay) [2, 7]: no form change | form change (XRPD overlay) ([2]; 80° C., sealed, 24 hrs): no form change

CC(C)c1ccccc1[C@@H]1CCCN1C1CC2(CCN(c3ccc(C(=O)NS(=O)(=O)c4ccc(NCC5CCC(C)(O)CC5)c([N+](=O)[O-])c4)c(Oc4cnc5[nH]ccc5c4)c3)CC2)C1 (stereo partly drawn) [Form R, 2-((1H-pyrrolo[2,3-b]pyridin-5-yl)oxy)-N-((4-((((1r,4r)-4-hydroxy-4-methylcyclohexyl)methyl)amino)-3-nitrophenyl)sulfonyl)-4-(2-((S)-2-(2-isopropylphenyl)pyrrolidin-1-yl)-7-azaspiro[3.5]nonan-7-yl)benzamide]
form change (XRPD overlay) [2, 6]: no form change was observed | form change (XRPD overlay) [2, 7]: no form change was observed | form change (XRPD overlay) ([2]; 80° C., sealed, 24 hrs): converted to a form which was similar to Form S
